Laboratory results reported in article PMC12444472, “BCI inhibits MKP3 by targeting the kinase-binding domain and disrupting ERK2 interaction” (The Journal of Biological Chemistry, 2025).

What was measured:
Test in all cases: NMR titration (1H-15N HSQC)
Assay type in all cases: binding
[1] = target: T1, MKP5^KBD (Homo sapiens, UniProt Q9Y6W6); settings: molar ratio 1:5
T1 construct: MKP5(139–287) (MKP5^KBD); made in house; host or cells: Escherichia coli BL21(DE3)
T1 sequence (Q9Y6W6 139-287): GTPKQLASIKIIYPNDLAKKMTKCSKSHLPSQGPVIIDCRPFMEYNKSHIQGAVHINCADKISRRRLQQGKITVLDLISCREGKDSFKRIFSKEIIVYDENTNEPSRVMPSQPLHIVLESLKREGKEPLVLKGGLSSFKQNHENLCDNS
Procedure: (§1) NMR data were collected at 298 K on a Bruker AVANCE NEO 800 MHz spectrometer (Bruker BioSpin) equipped with a ^1H&^19F/^13C/^15N TCI cryogenic probe. Backbone resonances of MKP3^1–154 were assigned using 2D/3D experiments, including 2D ^1H–^15N HSQC and 3D ^1H/^13C/^15N CBCA(CO)NH, HNCACB, HNCO, and HN(CA)CO, performed with uniformly ^13C/^15N labeled protein at a final concentration of 0.39 mM in buffer containing 20 mM imidazole (pH 6.0), 100 mM NaCl, 5 mM DTT, 0.5 mM EDTA, and 5% (v/v) D2O. The buffer used for backbone resonance assignment was similar to that used for the previously reported NMR structure ([15]). NMR titration experiments were conducted using ^15N-labeled MKP3^1–154, MKP3^14–152, MKP3^204–350, MKP1^1–141, MKP2^5–159, MKPX^1–140, MKP4^1–143, and MKP5^139–287. 2D ^1H–^15N HSQC spectra of ^15N-labeled MKPs^KBD (0.1 mM) were acquired in the absence and presence of BCI (50 mM stock in DMSO-d6) in buffer containing 50 mM KH2PO4–K2HPO4 (pH 7.2), 100 mM KCl, 1 mM Tris(2-carboxyethyl)phosphine hydrochloride, 1 mM EDTA, and 5% (v/v) D2O. Control experiments, in which only the corresponding volume of DMSO-d6 was added to ^15N-labeled proteins, were performed to exclude possible effects of DMSO on the interactions. For ^15N T1 measurements, the relaxation delay times were set to 20 (×2), 100, 200 (×2), 300, 400, 600 (×2), 800, 1200, and 1600 ms. For ^15N T2 measurements, the delay times were 7.84, 15.68 (×2), 23.52, 31.36 (×2), 39.2, 47.04 (×2), 54.88, 62.72, 78.4, 94.08, and 109.76 ms. The relaxation rates R1 (1/T1) and R2 (1/T2) for each residue were determined by fitting the peak intensities from spectra acquired at the various delay times to a single-exponential decay function: I/I0 = exp(-R1,2·t), where I0 is the intensity at t = 0, and I is the intensity at a delay time t. Repeated measurements were used to estimate the uncertainties of the R1 and R2 values via Monte Carlo analysis. Heteronuclear steady-state ^1H–^15N NOE experiments were acquired in an interleaved mode, with 5 s of ^1H saturation for NOE build-up and 5 s of relaxation delay for the reference spectra. Repeated experiments were performed to estimate uncertainties, and the propagated error for each NOE value was calculated using the following equation: σNOE = NOE × ((σsat/Isat)^2+(σunsat/Iunsat)^2)^1/2, where σsat and σunsat are the SDs of the saturated and unsaturated spectra, respectively, and Isat and Iunsat are the corresponding signal intensities. NMR data were processed using TopSpin 4.1.1 (Bruker BioSpin) or NMRPipe ([54]) and analyzed with POKY ([55]).

[2] = target: T2, MKP1^KBD (Homo sapiens, UniProt P28562); settings: molar ratio 1:15
T2 construct: MKP1(1–141) (MKP1^KBD); made in house; host or cells: Escherichia coli BL21(DE3)
T2 sequence (P28562 1-141): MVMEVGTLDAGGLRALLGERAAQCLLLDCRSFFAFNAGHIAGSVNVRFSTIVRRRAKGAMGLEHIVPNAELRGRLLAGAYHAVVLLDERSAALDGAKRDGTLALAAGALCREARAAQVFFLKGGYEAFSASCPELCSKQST
Procedure: as §1

[3] = target: T3, MKP3^CD (Homo sapiens, UniProt Q16828)
T3 construct: ^15N-labeled MKP3^1–154, MKP3^14–152, MKP3^204–350; made in house; host or cells: Escherichia coli BL21(DE3)
T3 sequence (Q16828 204-350): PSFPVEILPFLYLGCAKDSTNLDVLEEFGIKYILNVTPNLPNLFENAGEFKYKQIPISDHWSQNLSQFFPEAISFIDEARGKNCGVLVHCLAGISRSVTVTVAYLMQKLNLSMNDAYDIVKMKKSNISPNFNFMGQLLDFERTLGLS
Procedure: as §1

[4] = target: T4, MKP3^KBD (Homo sapiens, UniProt Q16828); settings: 15N-labeled MKP3^KBD titrated with BCI, analysed at 1:4 M ratio
T4 construct: MKP3(1–154) (MKP3^KBD); made in house; host or cells: Escherichia coli BL21(DE3)
T4 sequence (Q16828 1-154): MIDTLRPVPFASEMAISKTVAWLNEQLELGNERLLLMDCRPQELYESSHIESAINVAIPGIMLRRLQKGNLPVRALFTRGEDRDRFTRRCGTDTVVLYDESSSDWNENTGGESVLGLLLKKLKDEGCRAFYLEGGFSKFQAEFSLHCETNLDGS
Procedure: as §1

[5] = target: T5, MKP4^KBD (Homo sapiens, UniProt Q99956); settings: molar ratio 1:15
T5 construct: MKP2^5–159, MKPX^1–140, MKP4^1–143, and MKP5^139–287; made in house; host or cells: Escherichia coli BL21(DE3)
T5 sequence (Q99956 1-143): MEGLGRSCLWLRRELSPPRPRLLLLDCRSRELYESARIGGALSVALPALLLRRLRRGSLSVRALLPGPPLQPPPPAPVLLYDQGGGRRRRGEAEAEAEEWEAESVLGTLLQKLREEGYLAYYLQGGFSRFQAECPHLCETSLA
Procedure: as §1

[6] = target: T6, MKP2^KBD (Homo sapiens, UniProt Q13115); settings: molar ratio to BCI 1:13
T6 construct: MKP2(5–159) (MKP2^KBD); made in house; host or cells: Escherichia coli BL21(DE3)
T6 sequence (Q13115 5-159): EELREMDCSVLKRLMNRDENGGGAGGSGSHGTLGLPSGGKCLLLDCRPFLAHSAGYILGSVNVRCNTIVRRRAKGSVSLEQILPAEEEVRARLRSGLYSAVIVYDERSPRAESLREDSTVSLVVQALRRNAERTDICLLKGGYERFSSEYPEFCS
Procedure: as §1

SMILES: O=C1/C(=C/c2ccccc2)C(NC2CCCCC2)c2ccccc21 (stereo not shown) [BCI, (E)-2-benzylidene-3-(cyclohexylamino)-2,3-dihydro-1H-inden-1-one]
- perturbation of NMR spectrum [1]: Significant peak broadening
- perturbation of NMR spectrum [2]: No significant NMR peak perturbation
- perturbation of NMR spectrum ([3]; excess BCI, without DMSO (low-activity state)): no detectable interaction
- perturbation of NMR spectrum ([3]; with 25% DMSO (high-activity state)): failed to perturb the spectrum
- perturbation of NMR spectrum [4]: significant peak broadening
- perturbation of NMR spectrum [5]: No significant NMR peak perturbation
- perturbation of NMR spectrum [6]: Peak broadening was detected
